Measurements taken from article PMC10732398 (PLOS Pathogens, 2023).

System: ⍺4β7
Assay: SPR: inhibition by linear peptides of soluble ⍺4β7 binding to a gp120 V2 (cV2 92TH023) surface
Conditions: Fig 7C, 7E
Description: To determine if this is the case, we employed an SPR -based assay. Biosensor surfaces were coated with either CD4 D1D2 or a 42 aa cyclic V2 peptide derived from the subtype E 92TH023 gp120 (cV2 92TH023). A third surface coated with MAdCAM-Ig was employed as a positive control. Soluble ⍺4β7 was passed over these surfaces. We then evaluated the capacity of staggered 15 aa peptides that span either CD4 D2 or gp120 V2 to inhibit this interaction (Fig 7A).
Fig 7 Reciprocal inhibition of gp120 V2 and CD4 binding to ⍺4β7 by D2 and V2 peptides. SPR measurements of soluble ⍺4β7 (analyte) binding to biosensor surfaces coated with CD4 D1D2, 92TH023 cyclic peptide, or MAdCAM-Ig in the absence or presence of either CD4 D2 or gp120 V2 peptides, as indicated. (A) List of overlapping 15 aa peptides corresponding to residues 157–187 of CD4 and residues 158–192 of gp120 V2 (subtype B consensus sequence). (B) Binding of ⍺4β7 to sCD4 D1D2 +/- CD4 D2 peptides. X-axis indicates ⍺4β7 mass bound (RU) at the end of the association phase. (C) Binding of ⍺4β7 to 92TH023 +/- gp120 V2 peptides. (D) Binding of ⍺4β7 to sCD4 D1D2 +/- gp120 V2 peptides. (E) Binding of ⍺4β7 to 92TH023 +/- CD4 D2 peptides. […]
Experiments were performed using a Biacore 3000 instrument (Cytiva Life Sciences) using CM4 or CM5 sensor chips. The data were evaluated using BIAevaluation 4.1.1 software (Cytiva Life Sciences). […]

Sequence: QKKVEFKIDIVVLA [CD4 P42, linear CD4 D2 peptide, residues 165-178, G β-strand]
- inhibition of gp120 binding to ⍺4β7 (in words): inhibits gp120 binding to ⍺4β7
